Measurements reported in patent US20210196738A1, “PHARMACEUTICAL COMPOSITION COMPRISING A COLLOIDAL DISPERSION AND A THERAPEUTIC AGENT AND METHODS AND USES THEREOF” (priority 2017, published 2021).
“Also recorded” adds a separate entry of the source. Where two headings read alike, the source gives them in different places.

Assays:
[1] = test system: S. enterica Typhimurium LT2; experiment: AgSol-antibiotic synergy screening assay; type: cell-based, Salmonella enterica; details: Streptomycin or Rifampicin; FIGS. 2A-2F
Method: (§1) Antibiotic stock solutions were serially diluted in 2-fold steps in pre-warmed (37° C.) nutrient broth (NB) to prepare an antibiotic concentration gradient above and below the minimal inhibitory concentration (MIC) of antibiotic (Table 4). 50 μl of prepared dilutions were aliquoted into a 96-well round bottom plate (Nunc, Thermo Fisher) for the screening assay.
(§2) Silver formulation (AgSol1000 (particles with 19 Ag per silica particle), AgSol300 (particles with 6 Ag per silica particle, AgNO3), aluminum coated silica beads (159/500 (silica particles with aluminium silicate coating)) and uncoated silica beads (15/500) were diluted in pre-warmed (37° C.) NB. Bindzil®15/500 is an unmodified silica sol, whereas Bindzil®159/500 is a aluminosilicate modified silica sol. Bindzil® is sold by Akzo Nobel AB.
(§3) 40 μl of the prepared dilutions were added to the 96-well plate containing antibiotic gradient to reach the final silver concentration of ¼×MICAgSol (silver) (specific for the microorganism used) (Table 5).
(§4) The prepared plate was incubated in 37° C. incubator without shaking in the dark for 16-20 h and the optical density (OD620) of each well was measured in plate reader Multiscan FC (Thermo Fisher).

[2] = test system: Salmonella enterica Typhimurium LT2; experiment: Highly sensitive competition experiments (resistant vs wild type); type: cell-based; details: 50% sensitive / 50% Streptomycin-resistant bacteria; silver at 0.25×MIC; FIG. 1
Method: (§5) The Minimum Inhibitory Concentration (MIC) of nanosilver (silver) was determined by two-fold dilution series in NaCl free Nutrient Broth (Sigma-Aldrich) in 15 ml screw cap tubes. The tubes were incubated in the dark over night at 37° C. without shaking. The MIC was determined as the lowest concentration of nanosilver (silver) at which no visible growth was observed.

[3] = test system: E. coli K-12 MG1655 (DA4201); experiment: AgSol-antibiotic synergy screening assay / MIC (Ag/Antibiotic screen); type: cell-based, Escherichia coli; details: for MIC: Escherichia coli, MG1655, antibiotic alone; for Antibiotic MIC, NB + AgSol1000: antibiotic in combination with AgSol1000 at ¼ × MIC silver; for Fold change (antibiotic MIC, NB vs NB + AgSol1000): dash = MIC unchanged
Method: (§6) The MIC (Minimal Inhibitory Concentration) of a bacterium to a certain antimicrobial agent gives a quantitative estimate of the susceptibility. MIC is defined as the lowest concentration of antimicrobial agent required to inhibit growth of the organism. The principle is simple: Agar plates, tubes or microtitre trays with two-fold dilutions of antibiotics are inoculated with a standardized inoculum of the bacteria and incubated under standardized conditions following NCCLS guidelines. The next day, the MIC is recorded as the lowest concentration of antimicrobial agent with no visible growth. The MIC informs you about the degree of resistance and might give you important information about the resistance mechanism and the resistance genes involved. MIC-determination performed as agar dilution is regarded as the gold standard for susceptibility testing (Source: Global Salm-Surv—A global Salmonella surveillance and laboratory support project of the World Health Organization (4th Ed. April 2002, modified November 2010))
as §5, §1, §2, §3
(§7) Overnight (16-20 h) cultures of 3 biological replicates of the following microorganisms E. coli K-12 MG1655 (DA4201), E. coli K-12 MG1655 rpsL K42N (DA49828), Pseudomonas aeruginosa PAO1 (DA6215) or Staphylococcus aureus USA300 JE2 (DA28823) were grown in NB till saturation (37° C. incubator with 190 rpm shaking). Cultures were diluted in NB to 10^7 CFU/ml and 10 μl of the dilution were added to the 96-well plate containing antibiotic gradient and silver formulations or the bead controls to reach the final concentration of 10^5 CFU/well in 100 μl total volume per well. 3 technical replicates (3 wells) of specific antibiotic concentration in combination with silver and microorganism were used. A control plate containing bacterial cells mixed with only antibiotic gradient was always included too.
as §4

[4] = test system: Staphylococcus aureus USA300 JE2 (DA28823); experiment: Time-kill assay; type: cell-based; details: antibiotic 2×MIC, silver ¼×MIC; FIG. 7A-B
Method: Antibiotic stock solutions were diluted in pre-warmed (37° C.) nutrient broth (NB) to prepare 2×MIC concentration (Table 4) of antibiotic in the final volume of 2 ml in 15 ml tubes (Sarstedt).
Silver formulation (AgSol1000, AgNO3) was diluted in pre-warmed (37° C.) NB and added to the tube containing antibiotic to reach the final silver concentration of ¼×MICAgsol (silver) (Table 5) in the final volume of 2 ml.
Overnight (16-20 h) cultures of 2 biological replicates of the following microorganisms Pseudomonas aeruginosa PAO1 (DA6215) or Staphylococcus aureus USA300 JE2 (DA28823) were grown in NB till saturation (37° C. incubator with 190 rpm shaking). Cultures were diluted (1/100) in pre-warmed (37° C.) NB and incubated in 37° C. incubator with 190 rpm shaking until they reached exponential growth phase (OD600˜0.2). Final concentration of approximately 10^6 CFU/ml of exponentially dividing cells was used in the total volume of 2 ml mixture of antibiotic and silver formulation. Control tubes with only bacterial cells or bacterial cells mixed with only antibiotic or only silver formulation were also used.
All tubes were incubated in 37° C. water bath with 150 rpm shaking and 100 μl samples were taken out at pre-determined time points for viable counts (2 technical replicates). CFU counts were normalized to the 0 h sample and were plotted as a function of time (h).
A “Time Kill” test was performed with S. aureus USA3000 JE2 and Fusidic acid (FUS) and Mupirocin (MUP) and with P. aeruginosa (PAO1) with gentamicin (GEN). From a stock solution with bacteria with controlled growth at 37° C. during 16 h, […] were prepared: • Bacterial cells • Bacterial cells+AgSol • Bacterial cells+AgNO3; • Bacterial cells+AgSol+antibiotic • Bacterial cells+AgNO3+antibiotic
Samples were taken after 0, 4, 8, 24 and 48 hours at 37° C. (incubation with shaking). The samples were plated for viable counts, CFU counts normalized to 0 h and plotted as a function of time.

[5] = test system: Staphylococcus aureus USA300 JE2 (DA28823); experiment: AgSol-antibiotic synergy screening assay / MIC; type: cell-based; details: for effect of antibiotic when adding AgSol: S. aureus (USA300 JE2), FIGS. 4 and 5; for MIC: Staphylococcus aureus, USA300, antibiotic alone, S. aureus (DA28823), values used for antibiotic gradient
Method: as §6, §5, §1, §2, §3, §7, §4

[6] = E. coli (DA4201), values used for antibiotic gradient, read-out: MIC
[7] = nutrient broth, read-out: Antibiotic MIC, NB

With `O=[N+]([O-])[O-].[Ag+]` [AgNO3, silver nitrate] the “effect of silver formulation in combination with antibiotics vs silica particles 159/500 and 15/500” value [1] was “improved effect” and the “effect of silver source in combination with Streptomycin” value [2] was “synergistic effect”.

With `CC1(C)S[C@@H]2[C@H](NC(=O)[C@H](N)c3ccccc3)C(=O)N2[C@H]1C(=O)O` [Ampicillin] the MIC [3, 6] was 4 µg/mL, the MIC [3, 7] was 4 µg/mL and the “Antibiotic MIC, NB + AgSol1000” value ([3]; nutrient broth) was 2 µg/mL. The “Fold change (antibiotic MIC, NB vs NB + AgSol1000)” value (shortened to “Fold change”) [3] was 2x.

With `CO/N=C(\C(=O)N[C@@H]1C(=O)N2C(C(=O)O)=C(COC(C)=O)CS[C@H]12)c1csc(N)n1` [Cefotaxime] the MIC [3, 6] was 0.094 µg/mL, the MIC [3, 7] was 0.094 µg/mL and the “Antibiotic MIC, NB + AgSol1000” value ([3]; nutrient broth) was 0.047 µg/mL. The “Fold change” value [3] was 2x.

For `O=C(N[C@H](CO)[C@H](O)c1ccc([N+](=O)[O-])cc1)C(Cl)Cl` [Chloramphenicol], the MIC [3, 6] was 3 µg/mL, the MIC [3, 7] was 3 µg/mL and the “Antibiotic MIC, NB + AgSol1000” value ([3]; nutrient broth) was 1.5 µg/mL. The “Fold change” value [3] was 2x.

`O=C(O)c1cn(C2CC2)c2cc(N3CCNCC3)c(F)cc2c1=O` [Ciprofloxacin] was tested, and the MIC [3, 6] was 0.012 µg/mL, the MIC [3, 7] was 0.012 µg/mL and the “Antibiotic MIC, NB + AgSol1000” value ([3]; nutrient broth) was 0.012 µg/mL.

With `CC[C@H]1OC(=O)[C@H](C)[C@@H](O[C@H]2C[C@@](C)(OC)[C@@H](O)[C@H](C)O2)[C@H](C)[C@@H](O[C@@H]2O[C@H](C)C[C@H](N(C)C)[C@H]2O)[C@](C)(O)C[C@@H](C)C(=O)[C@H](C)[C@@H](O)[C@]1(C)O` [Erythromycin] the MIC [3, 6] was 48 µg/mL, the MIC [3, 7] was 48 µg/mL and the “Antibiotic MIC, NB + AgSol1000” value ([3]; nutrient broth) was 48 µg/mL.

`CC(=O)O[C@H]1C[C@@]2(C)[C@@H](C[C@@H](O)[C@H]3[C@@]4(C)CC[C@@H](O)[C@@H](C)[C@@H]4CC[C@@]32C)/C1=C(\CCC=C(C)C)C(=O)O` [Fusidic acid] was tested, and the “time-kill: action of antibiotic in combination with AgSol” value [4] was “bacteriostatic”, the “effect of antibiotic when adding AgSol” value [5] was “synergistic anti-bacterial effect; also recorded: there was an effect” and the MIC [5] was 0.12 µg/mL.

For `NC[C@H]1O[C@H](O[C@H]2[C@H](O)[C@@H](O[C@H]3O[C@H](CO)[C@@H](O)[C@H](N)[C@H]3O)[C@H](N)C[C@@H]2N)[C@H](O)[C@@H](O)[C@@H]1O` [Kanamycin], the MIC [3, 6] was 0.5 µg/mL, the MIC [3, 7] was 0.5 µg/mL and the “Antibiotic MIC, NB + AgSol1000” value ([3]; nutrient broth) was 0.12 µg/mL. The “Fold change” value [3] was 4x.

`C/C(=C\C(=O)OCCCCCCCCC(=O)O)C[C@@H]1OC[C@H](C[C@@H]2O[C@H]2[C@@H](C)[C@H](C)O)[C@@H](O)[C@H]1O` [Mupirocin] was tested, and the “time-kill: action of antibiotic in combination with AgSol” value [4] was “bacteriostatic”, the “effect of antibiotic when adding AgSol” value [5] was “synergistic anti-bacterial effect; also recorded: there was an effect” and the MIC [5] was 0.12 µg/mL.

For `CO[C@H]1/C=C/O[C@@]2(C)Oc3c(C)c(O)c4c(O)c(c(/C=N/N5CCN(C)CC5)c(O)c4c3C2=O)NC(=O)/C(C)=C\C=C\[C@H](C)[C@H](O)[C@@H](C)[C@@H](O)[C@@H](C)[C@H](OC(C)=O)[C@@H]1C` [Rifampicin], the MIC [3, 6] was 3 µg/mL, the MIC [3, 7] was 3 µg/mL and the “Antibiotic MIC, NB + AgSol1000” value ([3]; nutrient broth) was 3 µg/mL.

For `CN[C@@H]1[C@H](O)[C@H](NC)[C@H]2O[C@@]3(O)C(=O)C[C@@H](C)O[C@H]3O[C@@H]2[C@H]1O` [Spectinomycin], the MIC [3, 6] was 12 µg/mL, the MIC [3, 7] was 12 µg/mL and the “Antibiotic MIC, NB + AgSol1000” value ([3]; nutrient broth) was 6 µg/mL. For the same compound, the “Fold change” value [3] was 2x.

In the case of `CN(C)[C@@H]1C(O)=C(C(N)=O)C(=O)[C@@]2(O)C(O)=C3C(=O)c4c(O)cccc4[C@@](C)(O)[C@H]3C[C@@H]12` [Tetracycline], the MIC [3, 6] is reported as 1 µg/mL, the MIC [3, 7] is reported as 0.5 µg/mL and the “Antibiotic MIC, NB + AgSol1000” value ([3]; nutrient broth) is reported as 0.5 µg/mL.

For `NC[C@H]1O[C@H](O[C@H]2[C@H](O)[C@@H](O[C@H]3O[C@H](CO)[C@@H](O)[C@H](N)[C@H]3O)[C@H](N)C[C@@H]2N)[C@H](N)C[C@@H]1O` [Tobramycin], the MIC [3, 6] was 0.75 µg/mL, the MIC [3, 7] was 0.75 µg/mL and the “fold increase in effect with AgSol vs antibiotic alone” value ([3]; Table 6, E. coli) was 16 fold. The “Antibiotic MIC, NB + AgSol1000” value ([3]; nutrient broth) was 0.047 µg/mL and the “Fold change” value [3] was 16x.
